The numbers were not newly measured in US20090246278A1, “USE OF ESSENTIAL OILS TO REDUCE BENZODIAZEPINE REQUIREMENTS DURING MEDICAL PROCEDURES” (priority 2008, published 2009), which cites them from elsewhere.

The test system of the data set is GABA receptors. As to conditions: effects antagonized by flumazenil.

`CC1=CCC2CC1C2(C)C` (stereo not drawn) [α-pinene, alpha-pinene]: the GABA-ergic properties result was “exert GABA-ergic properties”.

On to `C=C1CCC2CC1C2(C)C` (stereo not drawn) [β-pinene, beta-pinene], for which the GABA-ergic properties result is given as “exert GABA-ergic properties”.
